Source: ChEMBL document CHEMBL1158595, “2' biaryl amides as novel and subtype selective M1 agonists. Part II: Further optimization and profiling” (Bioorg Med Chem Lett, 2010)
Activity calls are given as the source filed them. The calls are words filed in the database; no cut-off is given here.

How the values were obtained:
[1] = biological target: T1, Muscarinic acetylcholine receptor M1 (Homo sapiens) (UniProt P11229); assay: Intrinsic activity at human muscarinic M1 receptor expressed in CHO cells assessed as effect on acetylcholine-induced intracellular calcium level by FLIPR assay relative to acetylcholine; assay type: functional, cell-based
T1 sequence (whole entry): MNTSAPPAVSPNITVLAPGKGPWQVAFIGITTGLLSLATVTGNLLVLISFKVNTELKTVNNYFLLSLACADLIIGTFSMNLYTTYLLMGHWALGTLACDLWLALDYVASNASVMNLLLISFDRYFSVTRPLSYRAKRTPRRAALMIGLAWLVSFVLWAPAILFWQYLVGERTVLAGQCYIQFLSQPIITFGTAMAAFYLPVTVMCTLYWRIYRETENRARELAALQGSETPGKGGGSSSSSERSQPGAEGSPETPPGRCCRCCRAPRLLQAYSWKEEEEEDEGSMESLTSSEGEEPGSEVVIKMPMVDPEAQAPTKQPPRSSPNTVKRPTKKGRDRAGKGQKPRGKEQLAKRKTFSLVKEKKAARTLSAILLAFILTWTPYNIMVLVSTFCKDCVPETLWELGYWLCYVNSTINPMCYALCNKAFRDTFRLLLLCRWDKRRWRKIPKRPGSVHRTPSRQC

[2] = biological target: T2, Muscarinic acetylcholine receptor M1 (Homo sapiens, UniProt P11229); assay: Agonist activity at human muscarinic M1 receptor expressed in CHO cells assessed as effect on acetylcholine-induced intracellular calcium level by FLIPR assay; assay type: functional, cell-based
T2 sequence (P11229 whole entry): T1 sequence (whole entry)

[3] = biological target: T3, Muscarinic acetylcholine receptor M4 (Homo sapiens, UniProt P08173); assay: Inhibition of human muscarinic M4 receptor expressed in CHO cells; assay type: cell-based
T3 sequence (P08173 whole entry): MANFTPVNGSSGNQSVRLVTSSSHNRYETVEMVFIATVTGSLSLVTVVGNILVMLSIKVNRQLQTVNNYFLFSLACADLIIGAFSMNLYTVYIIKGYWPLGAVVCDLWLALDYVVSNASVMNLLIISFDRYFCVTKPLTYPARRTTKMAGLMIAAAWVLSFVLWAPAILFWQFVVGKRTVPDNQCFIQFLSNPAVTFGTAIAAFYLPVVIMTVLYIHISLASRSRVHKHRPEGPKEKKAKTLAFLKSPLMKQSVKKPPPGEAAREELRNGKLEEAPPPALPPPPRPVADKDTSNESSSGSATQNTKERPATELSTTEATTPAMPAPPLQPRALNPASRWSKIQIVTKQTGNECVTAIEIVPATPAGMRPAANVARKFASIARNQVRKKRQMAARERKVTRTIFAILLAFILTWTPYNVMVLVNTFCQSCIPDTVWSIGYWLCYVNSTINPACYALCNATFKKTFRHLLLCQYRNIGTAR

[4] = biological target: T4, Muscarinic acetylcholine receptor M3 (Homo sapiens, UniProt P20309); assay: Inhibition of human muscarinic M3 receptor expressed in CHO cells; assay type: cell-based
Target sequence in this assay (P20309 whole entry): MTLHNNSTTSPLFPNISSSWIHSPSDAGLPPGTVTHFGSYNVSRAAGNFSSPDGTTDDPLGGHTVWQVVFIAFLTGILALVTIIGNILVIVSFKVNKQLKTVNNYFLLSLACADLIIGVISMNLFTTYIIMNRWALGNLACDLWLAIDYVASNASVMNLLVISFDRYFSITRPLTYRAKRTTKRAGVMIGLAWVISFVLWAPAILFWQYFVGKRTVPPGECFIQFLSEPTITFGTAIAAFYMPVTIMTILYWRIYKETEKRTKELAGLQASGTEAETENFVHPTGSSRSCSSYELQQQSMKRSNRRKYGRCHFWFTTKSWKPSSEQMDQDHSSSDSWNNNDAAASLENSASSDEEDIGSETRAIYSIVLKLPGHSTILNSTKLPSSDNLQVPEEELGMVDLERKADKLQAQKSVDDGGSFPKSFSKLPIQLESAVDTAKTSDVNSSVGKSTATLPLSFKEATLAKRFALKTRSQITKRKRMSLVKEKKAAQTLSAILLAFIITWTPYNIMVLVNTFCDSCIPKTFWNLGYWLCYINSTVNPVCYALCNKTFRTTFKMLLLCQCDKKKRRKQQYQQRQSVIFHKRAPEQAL

[5] = biological target: T5, Muscarinic acetylcholine receptor M5 (Homo sapiens, UniProt P08912); assay: Inhibition of human muscarinic M5 receptor expressed in CHO cells; assay type: cell-based
T5 sequence (P08912 whole entry): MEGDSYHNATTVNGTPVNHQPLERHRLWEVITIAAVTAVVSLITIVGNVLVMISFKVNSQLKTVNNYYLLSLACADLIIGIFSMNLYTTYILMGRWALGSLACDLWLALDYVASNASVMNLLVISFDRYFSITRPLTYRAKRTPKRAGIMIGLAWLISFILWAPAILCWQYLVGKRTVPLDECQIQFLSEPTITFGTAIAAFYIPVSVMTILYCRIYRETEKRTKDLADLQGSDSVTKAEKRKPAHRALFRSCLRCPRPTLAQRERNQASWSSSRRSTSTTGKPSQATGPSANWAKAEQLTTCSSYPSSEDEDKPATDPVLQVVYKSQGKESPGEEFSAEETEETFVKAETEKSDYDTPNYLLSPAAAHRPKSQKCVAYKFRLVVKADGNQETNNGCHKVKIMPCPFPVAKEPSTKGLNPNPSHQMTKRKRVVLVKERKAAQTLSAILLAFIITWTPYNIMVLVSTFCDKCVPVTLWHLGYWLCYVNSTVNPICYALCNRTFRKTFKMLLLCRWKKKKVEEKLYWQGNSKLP

[6] = biological target: T6, Muscarinic acetylcholine receptor M2 (Homo sapiens, UniProt P08172); assay: Inhibition of human muscarinic M2 receptor expressed in CHO cells; assay type: cell-based
T6 sequence (P08172 whole entry): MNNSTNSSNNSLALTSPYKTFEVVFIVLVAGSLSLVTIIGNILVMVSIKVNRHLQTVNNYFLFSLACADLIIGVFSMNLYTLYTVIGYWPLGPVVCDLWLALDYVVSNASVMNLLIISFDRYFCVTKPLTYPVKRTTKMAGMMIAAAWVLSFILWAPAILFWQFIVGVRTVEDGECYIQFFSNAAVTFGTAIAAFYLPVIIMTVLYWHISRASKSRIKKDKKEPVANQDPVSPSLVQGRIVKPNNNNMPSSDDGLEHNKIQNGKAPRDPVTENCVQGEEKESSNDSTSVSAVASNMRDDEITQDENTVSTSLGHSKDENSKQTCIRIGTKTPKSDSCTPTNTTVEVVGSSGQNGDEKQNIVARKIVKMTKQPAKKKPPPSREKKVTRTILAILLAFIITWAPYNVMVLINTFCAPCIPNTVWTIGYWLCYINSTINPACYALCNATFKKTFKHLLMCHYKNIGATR

[7] = biological target: T7, Muscarinic acetylcholine receptor M5 (Homo sapiens) (UniProt P08912); assay: Agonist activity at human muscarinic M5 receptor expressed in CHO cells assessed as effect on acetylcholine-induced intracellular calcium level by FLIPR assay; assay type: functional, cell-based
T7 sequence (whole entry): T5 sequence (P08912 whole entry)

[8] = Half life in rat at 10 mg/kg, sc; assay type: ADME, organism-based; set-up: dose 10 mg/kg, route subcutaneous; settings: in vivo
[9] = Ratio of drug level in brain to blood in rat at 10 mg/kg, sc; assay type: ADME, organism-based; set-up: dose 10 mg/kg, route subcutaneous
Rattus norvegicus [10] = assay: AUC in rat at 10 mg/kg, sc; assay type: ADME, organism-based, Plasma; set-up: dose 10 mg/kg, route subcutaneous; settings: in vivo
[11] = biological target: T4, Muscarinic acetylcholine receptor M3; assay: Agonist activity at human muscarinic M3 receptor expressed in CHO cells assessed as effect on acetylcholine-induced intracellular calcium level by FLIPR assay; assay type: functional, cell-based
Target sequence in this assay (P20309 whole entry, looked up): as the sequence (P20309 whole entry) above

[12] = biological target: T8, Muscarinic acetylcholine receptor M4 (Homo sapiens) (UniProt P08173); assay: Agonist activity at human muscarinic M4 receptor expressed in CHO cells assessed as effect on acetylcholine-induced intracellular calcium level by FLIPR assay; assay type: functional, cell-based
T8 sequence (whole entry): T3 sequence (P08173 whole entry)

[13] = biological target: T9, Muscarinic acetylcholine receptor M2 (Homo sapiens) (UniProt P08172); assay: Agonist activity at human muscarinic M2 receptor expressed in CHO cells assessed as effect on acetylcholine-induced intracellular calcium level by FLIPR assay; assay type: functional, cell-based
T9 sequence (whole entry): T6 sequence (P08172 whole entry)

[14] = biological target: Muscarinic acetylcholine receptors; M1 & M2 (Homo sapiens) (UniProt P11229+P08172); assay: Selectivity ratio of human muscarinic M2 receptor to human muscarinic M1 receptor
[15] = biological target: Muscarinic acetylcholine receptor M1 and M3 (Homo sapiens) (UniProt P20309+P11229); assay: Selectivity ratio of human muscarinic M3 receptor to human muscarinic M1 receptor
Muscarinic acetylcholine receptor M1 and M3 (Homo sapiens), sequence (P20309 whole entry, looked up, one chain of several): as the sequence (P20309 whole entry) above

Homo sapiens [16] = species on record: Homo sapiens; assay: Selectivity ratio of human muscarinic M4 receptor to human muscarinic M1 receptor
Homo sapiens [17] = species on record: Homo sapiens; assay: Selectivity ratio of human muscarinic M5 receptor to human muscarinic M1 receptor
Rattus norvegicus [18] = assay: AUC in rat at 3 mg/kg, po; assay type: ADME, organism-based, Plasma; set-up: dose 3 mg/kg, route oral; settings: in vivo
[19] = Ratio of drug level in brain to blood in rat at 3 mg/kg, po; assay type: ADME, organism-based; set-up: dose 3 mg/kg, route oral
[20] = Half life in rat at 3 mg/kg, po; assay type: ADME, organism-based; set-up: dose 3 mg/kg, route oral; settings: in vivo

Intrinsic activity [1] [%]	EC50 [2] [nM]	IC50 [3] [nM]	IC50 [4] [nM]	IC50 [5] [nM]	IC50 [6] [nM]	further results	Structure (SMILES)
91	3.16	7940	3160	1580	1260	–	O=C(NCC1=CCNCC1)c1c(F)cccc1-c1cccc(Cl)c1
116	0.794	158	39.8	501	200	Activity [7]: inactive; half-life [8]: 2.3 h; Kp [9]: 0.9; AUC (Rattus norvegicus [10]): 1655 ng·h/g; Activity [11]: inactive; Activity [12]: inactive; Activity [13]: inactive	C[C@H]1CNCC[C@@H]1CNC(=O)c1c(F)cccc1-c1cccc(Cl)c1 (relative stereo)
–	251	–	–	–	–	Ratio [14]: 100; EC50 [3]: > 10000 nM; EC50 [4]: > 10000 nM; EC50 [5]: > 10000 nM; Ratio [15]: 100; EC50 [6]: > 10000 nM; Ratio (Homo sapiens [16]): 100; Ratio (Homo sapiens [17]): 100	O=C(NCC1CCNCC1)c1ccccc1-c1nc(Cl)cs1
85	10	3160	5010	6310	2510	AUC (Rattus norvegicus [18]): 2221 ng·h/g; Kp [19]: 0.3; half-life [20]: 3 h	C[C@H]1CNCC[C@]1(F)CNC(=O)c1c(F)cccc1-c1cccc(Cl)c1
